The values that follow come from patent US5273992A, “Method for reducing sickle erythrocyte dehydration and delaying the occurrence of erythrocyte sickling in-situ” (Beth Israel Hospital Assoc. Inc., priority 1992, dated 1993).

Data set [1] has as its target T1, Ca^2+-activated K+ channel of SS cells (Homo sapiens, UniProt O15554).
T1 construct: Blood was collected after obtaining informed consent from patients; endogenous in cells; host or cells: erythrocytes (SS) from patients homozygous for Hb S
As to the kind of experiment: Displacement of ^125I-ChTX binding in sickle erythrocytes. Particulars: for ^125I-ChTX displacement, % of total: 90 min. The procedure:
White cells were removed by passing 0.8 mL of packed red cells through a 5 ml syringe containing a mixture of equal parts of alfa-cellulose and microcrystalline cellulose as originally described by Beutler and West [J. Lab. Clin. Med. 88:328-333 (1976)]. Red cells were washed 3 times in binding medium containing 18 mM NaCl, 2 mM KCl, 10 mM tris-Cl, pH 8.0, 230 mM sucrose and 0.25% bovine serum albumin. A suspension was then made in the same medium at 15% Hct. […] Tubes containing cell suspension were gently rotated for 90 min at room temperature. At the end of the incubation, aliquots of 1 ml were pelleted by microfuge and washed 3 times at 4° C. with a solution containing 200 mM NaCl, 10 mM tris-Cl, pH 8.0. The washed red cell pellet was then lysed in 1 ml of 0.01% Acationox®, and counted in a gamma counter. Aliquots of binding medium were counted prior to addition of cells and at the end of the binding assay.
^125 I-ChTX is a specific ligand of the Ca^2 + activated K+ channel of human red cells. […] To examine the interaction between CLT and the Ca^2 +activated K+ channel of SS cells, the question whether CLT can displace ^125 I-ChTX (50 pM) bound to SS cells was tested.

The target of data set [2] is Gardos channel of sickle erythrocytes (Homo sapiens, UniProt O15554). As to the kind of experiment: Membrane potential (Em) of SS cells with activated Gardos channel. Type of data set: cell-based. The procedure: Measurements of the proton distribution ratio in unbuffered media in the presence of the proton ionophore CCCP allow estimation of the red cell membrane potential (Em). Erythrocytes were washed twice at room temperature with unbuffered medium of the desired composition and added with stirring to 5 ml of the same medium to a final Hct of 5%. All media contained 100 μM ouabain, 10 μM bumetanide, 10 μM DIDS, 10 μM methazolamide and 50 μM CCCP (50 mM stock solution in DMSO. The medium was maintained at 37° C., and pH was recorded for one min prior and 10 min following addition of the red cells. Inhibitors were added to the specified final concentration by appropriate dilution from 10 mM stocks. For internal pH measurements, 20 μl of 10% (v/v) Triton X-100 were added to the cell suspension in unbuffered medium under stirring, and the pH of the resultant lysate measured and assumed to equal pHi. Em was calculated from the equation [formula] [pHi --pHo ], as detailed in Halpern et al, Am. J. Physiol. 257:c986-c996 (1989).
Sequence of Gardos channel of sickle erythrocytes (O15554 whole entry): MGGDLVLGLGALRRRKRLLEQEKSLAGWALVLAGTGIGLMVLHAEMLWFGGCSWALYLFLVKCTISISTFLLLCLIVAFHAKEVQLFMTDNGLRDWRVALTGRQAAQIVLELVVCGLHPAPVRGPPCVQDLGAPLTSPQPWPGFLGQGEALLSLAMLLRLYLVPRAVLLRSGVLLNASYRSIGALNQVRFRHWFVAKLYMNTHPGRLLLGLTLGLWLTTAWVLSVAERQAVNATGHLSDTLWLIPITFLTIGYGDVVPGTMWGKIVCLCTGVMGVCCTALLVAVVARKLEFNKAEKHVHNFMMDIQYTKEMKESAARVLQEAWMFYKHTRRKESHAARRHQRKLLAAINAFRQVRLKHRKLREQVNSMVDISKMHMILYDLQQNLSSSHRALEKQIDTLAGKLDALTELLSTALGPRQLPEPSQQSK
When the Gardos channel is activated, the increased permeability for K+ shifts the membrane potential away from the equilibrium potential for Cl- (ECI) toward the equilibrium potential for K+(EK). This effect is magnified with the Cl-permeability is inhibited by DIDS.

Data set [3] has as its target T2, Ca^2+-activated K+ channel (Gardos channel) of sickle erythrocytes (Homo sapiens, UniProt O15554).
T2 construct: Blood was collected after obtaining informed consent from patients; endogenous in cells; host or cells: erythrocytes (SS) from patients homozygous for Hb S
Description: Ca^2+-activated ^86Rb influx in sickle (SS) erythrocytes. It counts as cell-based. The procedure: Patients homozygous for Hb S disease were selected. Blood was collected after obtaining informed consent from patients followed in the Hematology Division Clinic at Brigham and Women's Hospital and in the Boston Comprehensive Sickle Cell Center at Boston City Hospital. None of the patients had been transfused in the preceding 120 days.
Other experiments were carried out in normal saline (140 mM NaCl, 2 mM KCl, 10 mM tris-HCl, pH 8.0). At the end of the incubation, triplicate samples of each cell suspension were spun at 3,000 g for 10 min. The supernatant was then removed and a smaller volume of medium containing A23187 (60 μM CaCl2, and ^86 Rb was added to achieve a final Hct of 4-5%. Aliquots of cell suspension were taken at specified times (1, 3, and 5 min) and spun through 0.8 ml of medium with 5 mM EGTA and a 0.4 ml cushion of butyl-phthalate. The resultant supernatant and the upper layer of oil were carefully removed, the tube contents frozen at -80° C. and the tube tip containing the cell pellet cut off and counted.

Data set [4] has as its system SS cells (sickle erythrocytes). Type of data set: cell-based, human. Conditions: for Inhibition of dehydration of SS cells (in words): 60 μmol A23187/L cells, 100 μM CaCl2; for Cell K content at end of incubation: SS cells, A23187 + Ca^2+, average of three experiments (control 279±20, Ca^2+ alone 84.9±24). The procedure:
Cells were incubated for 60 min at 37° C. in a medium containing 140 mM NaCl, 4 mM KCl, 100 μM CaCl2, 1 mM K-phosphate buffer, pH 7.40, 10 mM tris-MOPS, pH 7.40, at 1-2% Hct. A23187 was subsequently added to a final concentration of 60 μmol/l cells under stirring. At the specified time intervals, the cell suspension was diluted with an equal amount of medium containing 5 MM EGTA and 0.1% BSA. The red cells were then washed four times with the same medium at 37° C. This procedure allowed for chelation of extracellular Ca^2 + and removal of A23187. An aliquot of cells washed in this medium was used to measure the distributions of cell volume and hemoglobin concentration with the H2-Technicon blood analyzer, while the remaining cells were washed four times with choline washing solution (144 mM Choline Cl, 1 mM MgCl2, 10 mM tris-MOPS, pH 7.40 at 4° C.) for measurements of internal Na and K contents.
291-300; Ohnishi et al., Biochim Biophys. Acta 1010:199-203 (1989): Horruchi et al., Blood 71:46-51 (1988)]. However, the results are highly dependent on the protocol used for deoxygenation and reoxygenation of SS cells. We reasoned that the inhibitory effect of CLT and other antimycotics on the dehydration mediated by the Ca^2 +-activated K+ channel should be assessed under conditions of maximal activation of this pathway. If the inhibitor is effective in blocking dehydration in these conditions, it should be able to block dehydration due to transient activation of the channel as during sickling. Accordingly, cells were exposed to A23187 in the presence of 100 μM CaCl2 in a medium containing 140 mM NaCl, 4 mM KCI, at pH 7.40, with or without the transport inhibitors.
After removal of ionophore and chelation of Ca, cell volume and hemoglobin concentration were measured on a cell per cell basis with the Technicon H-2 blood analyzer. […] Distribution histograms for red cell volume and hemoglobin concentration are presented in the lower panel. Arbitrarily established gates (hemoglobin concentration<28 and >41 g/dL; cell volume<60 and>120 fL) are used to define hypo- and hyperchromic cells and micro- and macrocytic cells, respectively. The distribution in the control SS cells (incubated with A23187 in the presence of 1 mM EGTA) resembles a teardrop, with reticulocytes and cells with low HC and high MCV in the top side of middle and left quadrant, discocytes in the central quadrant, and dehydrated dense cells in the right side of the middle quadrant. SS cells exposed to A 23187 and Ca^2+ were markedly dehydrated, as shown by the shift of the hemoglobin concentration (HC) histogram to higher values and by the increased HC values (FIG. 4). […] Measurements of cell cation content at the end of the incubation support the view that these effects are due to inhibition of K loss. […]

The subject of data set [5] is AE1 (band 3) chloride/bichloride exchanger. Description: ^35SO4 influx into AA erythrocytes (AE1 function). It counts as cell-based, human. The procedure:
The protocol used by Schofield et al. [Nature 355:836-838 (1992)] was used to measure ^35 SO2- uptake in AA erythrocytes.
To determine if the inhibition of Ca^2 +-activated ^86 Rb flux was secondary to an inhibitory effect on the membrane Cl-permeability, the effect of the various compounds on the ^35 SO4 influx was assessed. This assay is a measure of function of the major transport system for red cells, the AE1 (band 3) chloride/bichloride exchanger.

The target of data set [6] is T2, Ca^2+-activated K+ channel (Gardos channel) of sickle erythrocytes. As to the kind of experiment: Ca^2+-activated ^86Rb influx in sickle (SS) erythrocytes. Type of data set: cell-based. Conditions: medium 20 mM salt (low ionic strength); for IC50: Dixon plot analysis, read-out: Inhibition of ^86Rb influx, IC50.
For data set [7] the following is noted: in vivo; cited from earlier work.
The subject of data set [8] is Ca^2+ activated K+ channel of human red cells. Conditions: normal red cells; 50 nM cold ChTX; cited from earlier work.
[9] abbreviates: Inhibition of ^86Rb influx, IC50.
The mark [10] stands for this setting: SS erythrocytes, medium 20 mM salt.
Where [11] appears, read: SS erythrocytes, medium 140 mM salt (normal saline).
Setting [12] is: SS erythrocytes, medium 20 mM salt, read-out: ^125I-ChTX displacement, IC50.
The mark [13] stands for this setting: SS erythrocytes, medium 140 mM salt (normal saline), Dixon plot analysis, read-out: Inhibition of ^86Rb influx, IC50.

Values joined by “and” are separate entries in the source; they are usually repeats but may differ in a detail not shown here. Equal values may be shown once. “Also recorded” adds a separate entry of the source. Read-outs that look alike come from different tables or passages of the source.

Regarding `Clc1ccccc1C(c1ccccc1)(c1ccccc1)n1ccnc1` [Clotrimazole, 1-[(2-chlorophenyl)diplenylmethyl]-1H-imidazole], the “^125I-ChTX displacement (in words)” value in data set [1] is listed as “displaced ^125 I-ChTX in a dose-dependent manner”. Moreover, the “^125I-ChTX displacement, % of total” value in data set [1] (sickle erythrocytes) is on record as 74.5%. The “Effect on K+ permeability and membrane potential (Em)” value in data set [2] (SS cells, A23187 and 50 μM CaCl2) was “markedly reduced K+ permeability and shifted Em from EK”. Also, the “Inhibitory potency on membrane potential changes” value in data set [2] (low ionic strength vs normal saline, listed as CLT) was “higher in low ionic strength conditions than in normal saline”. In data set [3], the “Inhibition of Ca^2+-activated ^86Rb influx / K+ transport (in words)” value was “markedly inhibited”; the “Inhibition of ^86Rb influx, % maximum” value is 87% and 93%. In addition, in data set [4] (10 μM CLT, 50 nM ChTX, listed as CLT), the “Inhibition of dehydration of SS cells (in words)” value is “more pronounced than that by 50 nM ChTX; also recorded: substantially prevented dehydration; also recorded: markedly inhibited the dehydration of sickle cells”. Moreover, the “Cell K content at end of incubation” value in data set [4] (10 μM CLT) was 210±30 mmol/Kg Hb. In data set [5], the “Influx of the anion SO4” value is on record as “not affected”.

The term IC50 denotes the point on the concentration scale where inhibition reaches its midpoint. In the case of `Clc1ccc(COC(Cn2ccnc2)c2ccc(Cl)cc2Cl)cc1` (stereo not shown) [Econazole, 1-[2-[(4-chlorophenyl)methoxyl]-2-(2,14-dichlorophenyl)ethyl]-1H-imidacole], the IC50 in data set [1] was 205 nM; in data set [3] (setting [9]), 270 nM and 575 nM. Further, the “^125I-ChTX displacement, % of total” value in data set [1] (sickle erythrocytes) is 37%. Also, in data set [3], the “Inhibition of ^86Rb influx, % maximum” value was 31% and 47%.

Take `OC(Cn1cncn1)(Cn1cncn1)c1ccc(F)cc1F` [Fluconazole]: in data set [1] (setting [10]), the “^125I-ChTX displacement, % of total” value was 19%. Besides, the “Inhibition of Ca^2+-activated ^86Rb influx / K+ transport (in words)” value in data set [3] (SS erythrocytes) is “non-active”; in data set [3] (SS erythrocytes, listed as fluconazole), “no inhibition”. The “Inhibition of ^86Rb influx, % maximum” value in data set [3] (setting [11]) and in data set [6] was 0% each time.

`Cc1ncc([N+](=O)[O-])n1CCO` [Metronidazole, 2-methyl-5-nitroimidazole-1-ethanol]: the “^125I-ChTX displacement, % of total” value in data set [1] (setting [10]) is 49%. Also, the IC50 turned out to be 580 nM in data set [1] (setting [12]), 440 nM in data set [3] (setting [13]) and 850 nM in data set [6]. Moreover, the “Inhibition of Ca^2+-activated ^86Rb influx / K+ transport (in words)” value in data set [3] (SS erythrocytes) was “partially inhibited”. For the same compound, the “Sequence / rank of inhibitory potency on the Gardos pathway” value in data set [3] (SS erythrocytes) is listed as “clotrimazole>miconazole>econazole>metronidazole”. The “Inhibition of ^86Rb influx, % maximum” value amounted to 36% in data set [3] (setting [11]) and 28% in data set [6].

For `Clc1ccc(COC(Cn2ccnc2)c2ccc(Cl)cc2Cl)c(Cl)c1` (stereo not shown) [Miconazole], the IC50 is 165 nM in data set [1]; 110 nM and 100 nM in data set [3] (setting [9]). Besides, the “^125I-ChTX displacement, % of total” value in data set [1] (sickle erythrocytes) is reported as 57%. Further, the “Inhibition of ^86Rb influx, % maximum” value in data set [3] is 63% and 49%. Moreover, the “Marrow hyoplasia, share of the use cases” value in data set [7] is given as 40%.

Consider `Cc1ncc([N+](=O)[O-])n1CC(O)CCl` (stereo not shown) [Ornidazole], for which the “Inhibition of ^86Rb influx at 10 μM (in words)” value in data set [3] (SS erythrocytes) is given as “only marginally”. The “Inhibition of ^86Rb influx, % maximum” value is recorded as 21% in data set [3] (setting [11]) and 11% in data set [6].

With `CCS(=O)(=O)CCn1c([N+](=O)[O-])cnc1C` [Tinidazole], the “Inhibition of ^86Rb influx at 10 μM (in words)” value in data set [3] (SS erythrocytes) is “only marginally”. The “Inhibition of ^86Rb influx, % maximum” value in data set [3] (setting [11]) amounted to 3%; in data set [6] it was 21%.

As for CHARYBDOTOXIN, in data set [1] (setting [10]), the “^125I-ChTX displacement, % of total” value amounted to 74.5%. The IC50 came to 0.033 nM in data set [1] (setting [12]), 0.36 nM in data set [3] (setting [13]) and 0.096 nM in data set [6]. The “Inhibition of ^86Rb influx, % maximum” value in data set [3] (setting [11]) amounted to 52%; in data set [6] it was 95.5%. The “Inhibition of dehydration of SS cells (in words)” value in data set [4] (10 μM CLT, 50 nM ChTX) is given as “partially inhibited dehydration”. In data set [4] (50 nM ChTX), the “Cell K content at end of incubation” value came to 192.8±39 mmol/Kg Hb. Besides, in data set [8], the “Total binding displaced by excess cold ChTX” value is on record as 60-70%.
